Measurements taken from the supplement of paper PMC10307832.

How the values were obtained:
Assay in all cases: relative viability (nuclei count vs DMSO), 5 days (fraction); higher = more cells survive
IDH-C35 + Luminespib = compound: Cc1ccccc1C(C(=O)NC1CCCCC1)N(C(=O)Cn1ccnc1C)c1cccc(F)c1 [IDH-C35] + CCNC(=O)c1noc(-c2cc(C(C)C)c(O)cc2O)c1-c1ccc(CN2CCOCC2)cc1 [Luminespib] (partner 0.01 µM)
Procedure, shortened: (§1)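 Nuclei were stained with Hoechst during a one-step fixation (final 0.05% Triton X-100, 1% formaldehyde, 1 ug/ml Hoechst) carried out 5 days after dosing, then counted on 4× images. The cells, lung cancer lines in 1536-well plates, had been dosed by pin tool the day after seeding with one drug alone or a fixed anchor-drug dose plus five library-drug doses (not always all listed) in √10 steps. Relative viability is the nuclei count in treated wells divided by that in vehicle wells, and each value is the median of duplicate plates.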

[1] = compound: CC1=C(C(=NN1)C)CC2=C(C3=C(S2)N(C(=O)N(C3=O)C)CC(C)C)C(=O)N4C[C@@H](CO4)O + C[C@@H](Oc1cc(-c2cnn(C3CCNCC3)c2)cnc1N)c1c(Cl)ccc(F)c1Cl [Crizotinib] (partner 1 µM)
Procedure, shortened: as §1

IDH-C35 + Dasatinib = compound: Cc1ccccc1C(C(=O)NC1CCCCC1)N(C(=O)Cn1ccnc1C)c1cccc(F)c1 [IDH-C35] + Cc1nc(Nc2ncc(C(=O)Nc3c(C)cccc3Cl)s2)cc(N2CCN(CCO)CC2)n1 [Dasatinib] (partner 0.075 µM)
Procedure, shortened: as §1

IDH-C35 + Navitoclax = compound: Cc1ccccc1C(C(=O)NC1CCCCC1)N(C(=O)Cn1ccnc1C)c1cccc(F)c1 [IDH-C35] + CC1(C)CCC(c2ccc(Cl)cc2)=C(CN2CCN(c3ccc(C(=O)NS(=O)(=O)c4ccc(N[C@H](CCN5CCOCC5)CSc5ccccc5)c(S(=O)(=O)C(F)(F)F)c4)cc3)CC2)C1 [Navitoclax] (partner 0.5 µM)
Procedure, shortened: as §1

Cell Line	relative viability (IDH-C35 + Luminespib; first compound 0.08 µM)	relative viability (IDH-C35 + Luminespib; first compound 0.253 µM)	relative viability (IDH-C35 + Luminespib; first compound 0.8 µM)	relative viability (IDH-C35 + Luminespib; first compound 2.53 µM)	relative viability (IDH-C35 + Luminespib; first compound 8 µM)	relative viability ([1]; first compound 0.0025 µM)	relative viability ([1]; first compound 0.007906 µM)	relative viability ([1]; first compound 0.025 µM)	relative viability ([1]; first compound 0.07906 µM)	relative viability ([1]; first compound 0.25 µM)	relative viability (IDH-C35 + Dasatinib; first compound 0.08 µM)	relative viability (IDH-C35 + Dasatinib; first compound 0.253 µM)	relative viability (IDH-C35 + Dasatinib; first compound 0.8 µM)	relative viability (IDH-C35 + Dasatinib; first compound 2.53 µM)	relative viability (IDH-C35 + Dasatinib; first compound 8 µM)	relative viability (IDH-C35 + Navitoclax; first compound 0.08 µM)	relative viability (IDH-C35 + Navitoclax; first compound 0.253 µM)	relative viability (IDH-C35 + Navitoclax; first compound 0.8 µM)	relative viability (IDH-C35 + Navitoclax; first compound 8 µM)	relative viability (IDH-C35 + Navitoclax; first compound 2.53 µM)
NCI-H2405	0.755	0.63	0.614	0.706	0.64	0.91	0.805	0.727	0.748	0.805	0.209	0.212	0.213	0.206	0.184	0.926	0.981	0.918	0.76	
NCI-H3122	0.0958	0.105	0.0707	0.106	0.0868	0.281	0.26	0.276	0.259	0.299	0.725	0.487	0.56	0.865	0.777	1.03	0.997	0.96	1.08	1.01
PC-3 [JPC-3]	0.737	0.596	0.728	0.771	0.692	1.02	0.898	0.93	0.861	1.08	1	0.923	1.02	0.989	0.972	0.789	0.718	0.778	0.74	0.858
PC-14	0.148	0.154	0.177	0.243	0.198	0.91	0.904	0.881	0.932	0.954	0.302	0.277	0.271	0.247	0.221	1.11	1.03	0.966	0.98	1.04
RERF-LC-KJ	1.21	1.34	1.22	1.17	1.19	0.862	0.819	0.823	0.865	0.88	0.894	0.76	0.898	0.964	0.761	0.901	0.735	1.02	0.832	1.25
SK-LU-1	0.219	0.207	0.188	0.225	0.259	0.654	0.6	0.653	0.693	0.643	0.188	0.181	0.172	0.177	0.191	0.788	0.682	0.804	0.652	1.01
SK-MES-1	0.701	0.939	0.855	0.861	0.749	1.13	0.995	1.08	0.944	0.966	0.433	0.353	0.424	0.355	0.336	1.18	1.03	1.28	1.27	1.14
SW 1573	0.136	0.218	0.257	0.442	0.248	0.955	0.866	0.798	0.786	0.812	0.571	0.545	0.545	0.549	0.38	0.964	1.07	1.07	1.02	0.841
